Our source for the Activity, IC50 and MIC values is ChEMBL document CHEMBL5104152, “DNA-encoded library screening on two validated enzymes of the peptidoglycan biosynthetic pathway” (Bioorg Med Chem Lett, 2022).

As a reminder, the IC50 is the concentration at which inhibition is half-maximal. By MIC is commonly meant the lowest concentration that inhibits growth of the organism.

In assay [1] the target is D-alanine--D-alanine ligase B (Escherichia coli K-12) (UniProt P07862). As to the kind of experiment: Inhibition of recombinant Escherichia coli DdlB assessed as residual activity at 500 uM using D-alanine as substrate incubated for 20 mins and measured by malachite green based colorimetric assay relative to control.
In assay [2] the target is UDP-N-acetylglucosamine 1-carboxyvinyltransferase (Escherichia coli K-12) (UniProt P0A749). The assay can be described thus: Inhibition of recombinant Escherichia coli MurA assessed as residual activity at 1 mM using UDP-N-acetylglucosamine as substrate incubated for 15 mins and measured by malachite green based colorimetric assay relative to control.
For assay [3] the target is unchanged. The assay can be described thus: Inhibition of recombinant Escherichia coli MurA assessed as residual activity at 0.1 mM using UDP-N-acetylglucosamine as substrate incubated for 15 mins and measured by malachite green based colorimetric assay relative to control.
In assay [4] the target is UDP-N-acetylglucosamine 1-carboxyvinyltransferase (Escherichia coli K-12, UniProt P0A749). As to the kind of experiment: Inhibition of recombinant Escherichia coli MurA using UDP-N-acetylglucosamine as substrate incubated for 15 mins and measured by malachite green based colorimetric assay.
The test system of assay [5] is Escherichia coli. The assay can be described thus: Antibacterial activity against Escherichia coli ATCC 25922 incubated for 20 hrs and measured by broth microdilution method. Type of assay: functional. Background: Broth dilution looks for growth in wells or tubes with falling amounts of substance.
The next assay deals with Staphylococcus aureus. As to the kind of experiment: Antibacterial activity against Staphylococcus aureus ATCC 29213 incubated for 20 hrs and measured by broth microdilution method. Type of assay: functional.
For assay [6], the system named is Escherichia coli. The assay can be described thus: Antibacterial activity against Escherichia coli N43 incubated for 20 hrs and measured by broth microdilution method. It is filed as functional.
In assay [7] the test system is Escherichia coli. The assay can be described thus: Antibacterial activity against Escherichia coli D22 incubated for 20 hrs and measured by broth microdilution method. Type of assay: functional.
Assay [8] deals with D-alanine--D-alanine ligase B (Escherichia coli K-12) (UniProt P07862). The assay can be described thus: Inhibition of recombinant Escherichia coli DdlB assessed as residual activity at 20 uM using D-alanine as substrate incubated for 20 mins and measured by malachite green based colorimetric assay relative to control.
Assay [9] addresses D-alanine--D-alanine ligase B (Escherichia coli K-12, UniProt P07862). As to the kind of experiment: Inhibition of recombinant Escherichia coli DdlB using D-alanine as substrate incubated for 20 mins and measured by malachite green based colorimetric assay.
Assay [10] has as its target D-alanine--D-alanine ligase B (Escherichia coli K-12) (UniProt P07862). As to the kind of experiment: Inhibition of recombinant Escherichia coli DdlB assessed as residual activity at 100 uM using D-alanine as substrate incubated for 20 mins and measured by malachite green based colorimetric assay relative to control.
Assay [11] has the same target. As to the kind of experiment: Inhibition of recombinant Escherichia coli DdlB assessed as residual activity at 1 mM using D-alanine as substrate incubated for 20 mins and measured by malachite green based colorimetric assay relative to control.
Assay [12] has as its target UDP-N-acetylglucosamine 1-carboxyvinyltransferase (Escherichia coli K-12) (UniProt P0A749). As to the kind of experiment: Inhibition of recombinant Escherichia coli MurA assessed as residual activity at 0.5 mM using UDP-N-acetylglucosamine as substrate incubated for 15 mins and measured by malachite green based colorimetric assay relative to control.

Chain of UDP-N-acetylglucosamine 1-carboxyvinyltransferase (P0A749 whole entry): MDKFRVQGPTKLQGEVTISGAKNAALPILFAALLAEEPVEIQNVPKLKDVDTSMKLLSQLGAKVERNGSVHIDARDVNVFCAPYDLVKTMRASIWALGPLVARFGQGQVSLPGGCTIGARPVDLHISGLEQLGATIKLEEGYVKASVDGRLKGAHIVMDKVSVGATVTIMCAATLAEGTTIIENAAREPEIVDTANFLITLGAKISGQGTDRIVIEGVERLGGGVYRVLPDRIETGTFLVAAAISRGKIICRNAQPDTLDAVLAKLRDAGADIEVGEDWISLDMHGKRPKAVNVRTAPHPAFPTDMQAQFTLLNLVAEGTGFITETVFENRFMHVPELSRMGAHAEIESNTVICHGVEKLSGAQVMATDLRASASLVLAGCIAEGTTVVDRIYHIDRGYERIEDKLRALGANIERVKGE
Chain of UDP-N-acetylglucosamine 1-carboxyvinyltransferase (Escherichia coli K-12) (P0A749 whole entry): as above

On to `CCN(CC)C(=O)c1ccc(-c2cc3nc[nH]c3nc2C(=O)N[C@@H](Cc2ccccc2F)C(=O)NC)cc1`, for which the Activity in assay [1] was found to be 81%.
In the case of `O=C(O)c1cc(-c2ccccc2)nc2c(Cl)cccc12`, in assay [2], the Activity was 95.2%.
Consider `O=C(O)c1cc(-c2ccc(-c3ccc([N+](=O)[O-])cc3)cc2)nc2ccc(Br)cc12`, for which the Activity in assay [3] was 100%.
Regarding `O=C(O)c1cc(-c2ccc(O)cc2)nc2ccccc12`, the Activity in assay [2] stood at 66.6%.
For `O=C(O)c1cc(-c2ccc(C3CCCCC3)cc2)nc2ccccc12`, the Activity in assay [3] was 98.3%.
`O=C(O)c1cc(-c2ccccc2)nc2ccc(Cl)cc12`: the Activity in assay [2] was found to be 86.3%.
Regarding `O=C(O)c1cc(-c2ccco2)nc2ccccc12`, the Activity in assay [2] came out at 68%.
`O=C(O)c1cc(-c2ccccc2Cl)nc2ccccc12`: the Activity in assay [2] was determined as 58.8%.
Turning to `COC(=O)c1cc(-c2ccccc2)nc2ccccc12`, in assay [2], the Activity is 92.6%.
Regarding `CNC(=O)[C@@H](Cc1cn(C(=O)OC(C)(C)C)c2ccccc12)NCc1ccc(-n2ccnc2)c(-c2ccc(-c3cc(C(=O)O)c4ccccc4n3)cc2)c1`, the IC50 in assay [4] came to 14.1 µM. Besides, the minimal inhibitory concentration (MIC) against Escherichia coli [5], in the assay on Staphylococcus aureus, in the assay on Escherichia coli [6] and with Escherichia coli [7] was > 128 µg/mL in each case.
On to `O=C(O)c1cc(-c2cccc(Cl)c2)nc2ccccc12`, for which, in assay [2], the Activity is 82.4%.
`O=C(O)c1cc(-c2ccccc2)nc2cc(Cl)ccc12`: the Activity in assay [2] turned out to be 101%.
On to `O=C(O)c1cc(-c2ccc(/C=C/c3ccccc3)cc2)nc2ccccc12`, for which, in [4], the half-inhibitory concentration (IC50) came out at 78.3 µM. For the same compound, the MIC in the assay with Escherichia coli [5] was > 128 µg/mL; against Staphylococcus aureus, 64 µg/mL; against Escherichia coli [6], > 128 µg/mL; with Escherichia coli [7], 32 µg/mL.
Regarding `CNC(=O)[C@H]1CCCC[C@H]1NC(=O)c1nsc2ccc(-c3cc(F)cc(F)c3)cc12`, in assay [8], the Activity is 106%.
On to `CC[C@H](C)[C@@H](CCC(=O)NC)NC(=O)[C@H](Cc1c[nH]c2ccc(F)cc12)NC(=O)[C@H](CCC(C)C)NCc1cnn(C)c1-c1ccc(OC)cc1`, for which the IC50 in [9] is 243 µM. Further, the minimal inhibitory concentration (MIC) with Escherichia coli [5], in the assay with Staphylococcus aureus, in the assay on Escherichia coli [6] and against Escherichia coli [7] was > 250 µM in each case.
As for `O=C(O)c1cc(-c2ccccc2O)nc2ccccc12`, in assay [2], the Activity worked out at 77.5%.
As for `O=C(O)c1cc(-c2ccc(Cl)cc2)nc2ccccc12`, in [2], the Activity worked out at 79.3%.
Take `O=C(O)c1cc(-c2cccc(O)c2)nc2ccccc12`: in assay [2], the Activity stood at 72.9%.
Take `CNC(=O)C[C@H](C)NC(=O)c1nsc2ccc(-c3cc(F)cc(F)c3)cc12`: in [10], the Activity came to 87%.
Take `O=C(O)c1cc(-c2ccc(-c3ccccc3)cc2)nc2ccccc12`: the 50% inhibitory concentration (IC50) in assay [4] was 172 µM. The minimal inhibitory concentration (MIC) was > 128 µg/mL against Escherichia coli [5], 128 µg/mL with Staphylococcus aureus, > 128 µg/mL in the assay with Escherichia coli [6] and 128 µg/mL with Escherichia coli [7].
With `CNC(=O)[C@@H](Cc1c[nH]c2ccccc12)NCc1ccc(-n2ccnc2)c(-c2ccc(-c3cc(C(=O)O)c4ccccc4n3)cc2)c1`, the half-maximal inhibitory concentration (IC50) in assay [4] was 15.5 µM.
As for `CNC(=O)C(N)Cc1c[nH]c2ccccc12` (configuration not stated), the Activity in assay [2] worked out at 95.3%.
Turning to `Cc1c[nH]c2ccc(F)cc12`, the Activity in assay [11] came to 108%.
In the case of `COc1ccc(-c2[nH]ncc2CN)cc1`, the Activity in [11] was found to be 58.6%.
Still for that read-out and setting: the result for `NC(Cc1c[nH]c2ccc(F)cc12)C(=O)O` (configuration not stated) reads 92.5%.
Take `O=C(O)c1c(-c2ccccc2)c(-c2ccccc2)nc2ccccc12`: the Activity in [2] came out at 85.2%.
For `O=C(O)c1cc(-c2ccc3c(c2)OCCO3)nc2ccccc12`, in assay [2], the Activity was determined as 77.3%.
Turning to `COc1ccc(-c2cc[nH]n2)cc1`, in assay [11], the Activity came out at 92.9%.
Turning to `O=C(O)CCc1c[nH]c2ccc(F)cc12`, in assay [11], the Activity is 94.2%.
For the compound `CC(=O)Nc1ccc(-c2cc(C(=O)O)c3ccccc3n2)cc1`, the Activity in assay [12] turned out to be 82.6%.
Take `CNC(=O)[C@@H]1[C@@H](C)OC(C)(C)N1C(=O)[C@@H](NC(=O)c1nsc2ccc(-c3cc(F)cc(F)c3)cc12)C(C)C`: the Activity in [8] worked out at 103%.
